± gives the standard deviation.
Assays:
[1] = chemical recovery from spiked human plasma; higher = better extraction; details: pooled human plasma
[2] = chemical recovery by SPE of plasma after PDMS sampling; higher = better extraction; details: pooled human plasma, extraction method: HLB SPE of plasma after PES
[3] = chemical recovery into PDMS from spiked human plasma; higher = better extraction; details: pooled human plasma, extraction method: PES with PDMS
[4] = extraction method: SPE only (HLB 96-well), PES comparison experiment
[5] = extraction method: PES+SPE (3 d PDMS equilibration then HLB SPE)
[6] = extraction method: SPE only (HLB 96-well)
[7] = extraction method: solvent precipitation (ACN + hexane)
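For chemical recovery by SPE of plasma after PDMS sampling in this document: over 400 spiked chemicals quantified by LC-HRMS or GC-HRMS via internal standard calibration, recovery relative to spike mix added to unspiked plasma extract to correct matrix effects.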

| Structure (SMILES) | chemical recovery [1, 4] [%] | chemical recovery into PDMS ([3]; equilibration time (d): 1) [%] | chemical recovery into PDMS ([3]; equilibration time (d): 3) [%] | chemical recovery into PDMS ([3]; equilibration time (d): 6) [%] | chemical recovery by SPE of plasma ([2]; equilibration time (d): 3) [%] | chemical recovery [1, 5] [%] | chemical recovery [1, 6] [%] | chemical recovery by SPE of plasma ([2]; equilibration time (d): 1) [%] | chemical recovery by SPE of plasma ([2]; equilibration time (d): 6) [%] | chemical recovery [1, 7] [%] |
| --- | --- | --- | --- | --- | --- | --- | --- | --- | --- | --- |
| O=C1CC2(CCCCC2)CN1 [Gabapentin-Lactam] | 48.4 ± 5.6 | 22.3 ± 0.47 | 28.5 ± 1.6 | 31.2 ± 1.6 | 15.6 ± 1.9 | 44.2 ± 6.2 | 49.4 ± 1.6 | 19.4 ± 2.5 | 9.93 ± 1.6 | 71.2 ± 2.9 |
| C#C[C@]1(O)C=C[C@H]2[C@@H]3CCC4=CC(=O)CC[C@@H]4[C@H]3CC[C@@]21CC [Gestoden] | 47 ± 7.4 | 34.1 ± 1.7 | 43 ± 2.3 | 40.9 ± 4.1 | 17.6 ± 1 |  |  | 22.4 ± 3 | 11.7 ± 1.3 |  |
| CN(C)c1nc(=O)n(C2CCCCC2)c(=O)n1C [Hexazinone] | 48.5 ± 4.3 | 36.1 ± 1.9 | 42.2 ± 4.5 | 44.5 ± 2.9 |  | 51.5 ± 4.8 | 45.4 ± 3.4 | 38.9 ± 6.6 | 22.5 ± 4.4 |  |
| O=P1(NCCCl)OCCCN1CCCl (stereo unspecified) [Ifosfamide] | 55.9 ± 6.7 | 3.64 ± 0.32 | 6.16 ± 1.5 | 6.9 ± 1.5 | 56.1 ± 4.8 | 46.6 ± 3.5 | 39.4 ± 3.3 | 54.9 ± 6.7 | 47.3 ± 4.7 | 71.7 ± 1.5 |
| CC(C)C1(C)N=C(c2ncccc2C(=O)O)NC1=O (stereo unspecified) [Imazapyr] | 52.5 ± 4 |  |  | 0.0849 ± 0.048 | 53.1 ± 3.2 | 44.4 ± 2.9 | 44.7 ± 9.6 | 49.5 ± 5.4 | 49.2 ± 2.4 | 67.7 ± 5.8 |
| O=C1NCCN1Cc1ccc(Cl)nc1 [Imidacloprid-urea] | 51.1 ± 4.4 | 6.18 ± 0.38 | 10.2 ± 1.7 | 11.7 ± 2 | 50.2 ± 4.6 | 51.2 ± 4.7 | 43.2 ± 9.1 | 50.1 ± 6.5 | 39.3 ± 1.7 | 77.1 ± 3.8 |
| O=[N+]([O-])/N=C1\NCCN1Cc1ccc(Cl)nc1 [Imidacloprid] | 53.3 ± 7.2 | 3.82 ± 0.41 | 6.8 ± 1.8 | 7.69 ± 1.4 | 50.2 ± 4.6 | 47.6 ± 4 | 39.9 ± 8 | 49 ± 6.3 | 43.2 ± 2.7 | 77.5 ± 3.8 |
| CC(C)c1ccc(NC(=O)N(C)C)cc1 [Isoproturon] | 53.4 ± 6.7 | 37.1 ± 2.3 | 40.1 ± 2.3 | 40.4 ± 0.94 | 5.5 ± 0.88 | 46.2 ± 4.8 | 43.1 ± 2.7 | 5.76 ± 0.47 | 3.08 ± 0.39 | 74.8 ± 3.5 |
| O=C1Nc2ccc(Cl)cc2C(c2ccccc2Cl)=NC1O (stereo unspecified) [Lorazepam] | 45.6 ± 7 | 4.25 ± 0.37 | 8.29 ± 1.1 | 9.18 ± 1.4 | 38.9 ± 3 | 36.5 ± 2.4 | 30.9 ± 2.8 | 38.9 ± 5.5 | 31.1 ± 1.8 | 72.1 ± 3.6 |
| Cc1cc(Cl)ccc1OCC(=O)O [MCPA] | 59.9 ± 5.7 | 0.00252 ± 0.0044 | 0.00652 ± 0.0057 |  | 64.2 ± 5.6 | 46.2 ± 2.6 | 43.1 ± 3 | 56.1 ± 11 | 58.8 ± 3.1 | 71.8 ± 7.4 |
| CC12CC3CC(C)(C1)CC(N)(C3)C2 [Memantine] | 45.1 ± 6.8 | 3.61 ± 1.9 | 4.46 ± 2.7 | 3.08 ± 2.4 | 7.03 ± 1.2 | 14.8 ± 4.7 | 46.6 ± 1.4 | 6.36 ± 0.42 | 5.53 ± 0.96 | 47.1 ± 4.5 |
| COCC(=O)N(c1c(C)cccc1C)C(C)C(=O)OC (stereo unspecified) [Metalaxyl] | 50.3 ± 7.6 | 33.1 ± 0.4 | 36.7 ± 3.2 | 36.9 ± 0.38 | 5.16 ± 0.64 |  |  | 5.41 ± 0.46 | 0.955 ± 1.6 | 70.2 ± 2.1 |

Further lines, with some results ahead:

| chemical recovery [1, 4] [%] | chemical recovery into PDMS ([3]; equilibration time (d): 1) [%] | chemical recovery into PDMS ([3]; equilibration time (d): 3) [%] | chemical recovery into PDMS ([3]; equilibration time (d): 6) [%] | Structure (SMILES) | chemical recovery by SPE of plasma ([2]; equilibration time (d): 3) [%] | chemical recovery [1, 5] [%] | chemical recovery [1, 6] [%] | chemical recovery by SPE of plasma ([2]; equilibration time (d): 1) [%] | chemical recovery by SPE of plasma ([2]; equilibration time (d): 6) [%] | chemical recovery [1, 7] [%] |
| --- | --- | --- | --- | --- | --- | --- | --- | --- | --- | --- |
| 41.1 ± 5.8 | 32.3 ± 3 | 39.3 ± 3.7 | 41.3 ± 2.3 | CCC(=O)O[C@]1(C(=O)SCF)[C@H](C)C[C@H]2[C@@H]3C[C@H](F)C4=CC(=O)C=C[C@]4(C)[C@@]3(F)[C@@H](O)C[C@@]21C [Fluticasone propionate] | 4.78 ± 8.3 |  |  |  |  |  |
| 41.8 ± 7.1 | 2.41 ± 0.97 | 1.09 ± 0.96 | 2.83 ± 1.3 | COCCCC/C(=N\OCCN)c1ccc(C(F)(F)F)cc1 [Fluvoxamine] | 1.56 ± 0.35 | 4.62 ± 1.6 | 51 ± 0.52 | 1.45 ± 0.092 | 0.901 ± 0.06 |  |
| 7.63 ± 2.7 | 39.4 ± 2.9 | 45.8 ± 2.6 | 41.9 ± 5.7 | COCN(COC)c1nc(N(COC)COC)nc(N(COC)COC)n1 [Hexa(methoxymethyl)melamine] | 3.37 ± 3 | 38.3 ± 8.8 |  | 7.64 ± 6.8 | 0.745 ± 1 | 72.5 ± 2.8 |
| 43.2 ± 8.4 | 27.3 ± 1.6 | 31.3 ± 3.8 | 35.5 ± 13 | CCC(C)OC(=O)N1CCCCC1CCO (stereo unspecified) [Icaridin] | 2.67 ± 0.36 |  | 45 ± 5.5 | 2.46 ± 0.24 | 1.58 ± 0.1 |  |
| 47.6 ± 5.3 | 20 ± 0.37 | 20.6 ± 1 | 20.7 ± 1.6 | C=CCOC(Cn1ccnc1)c1ccc(Cl)cc1Cl (stereo unspecified) [Imazalil] | 0.334 ± 0.2 | 21.3 ± 3.4 | 42.1 ± 3 | 0.376 ± 0.081 | 0.104 ± 0.0059 | 75 ± 4.8 |
| 28.4 ± 4.4 | 2.55 ± 1.2 | 2.02 ± 2.1 | 1.36 ± 0.63 | C1=Cc2ccccc2Nc2ccccc21 [Iminostilbene] | 4 ± 1.1 | 10.8 ± 4.1 | 44.1 ± 7 | 3.69 ± 2.4 | 2.5 ± 1.3 | 73.2 ± 4.5 |
| 44.2 ± 6.4 | 19.6 ± 7 | 19.3 ± 6.5 | 20.9 ± 3.9 | CSc1nc(NC2CC2)nc(NC(C)(C)C)n1 [Irgarol] | 0.842 ± 0.15 |  | 55.7 ± 4 | 0.863 ± 0.085 | 0.421 ± 0.023 | 81.5 ± 4.4 |
| 4.27 ± 3.6 | 0.00705 ± 0.025 | 0.0508 ± 0.069 |  | CC1(C)CC(N)CC(C)(CN)C1 (stereo unspecified) [Isophorone diamine] |  |  |  |  | 1.22 ± 0.75 |  |
| 51.6 ± 7.8 | 16.8 ± 3 | 24.3 ± 2.5 | 26.3 ± 2.7 | CCCCCCCCCCCC(=O)N(CCO)CCO [Lauryl diethanolamide] | 18.5 ± 3.1 |  |  | 24.9 ± 2.9 | 13.2 ± 2.9 |  |
| 42.1 ± 5.8 | 13.7 ± 1.6 | 21 ± 1.4 | 23.6 ± 1.8 | COC(=O)Nc1nc2cc(C(=O)c3ccccc3)ccc2[nH]1 [Mebendazole] | 14 ± 1.4 | 71.2 ± 11 | 45 ± 2.8 | 18.4 ± 2.3 | 8.71 ± 0.66 | 77.3 ± 3.4 |
| 47.7 ± 7 | 40.5 ± 2.4 | 46.2 ± 3.4 | 44.5 ± 6.2 | CC(=O)[C@@]1(O)CC[C@H]2[C@@H]3C[C@H](C)C4=CC(=O)CC[C@]4(C)[C@H]3CC[C@@]21C [Medroxyprogesterone] |  |  |  |  | 1.02 ± 1.8 |  |

From the supplement of paper PMC10702517
